Measurements published in paper PMC12668310, “High‐Throughput Synthesis and Screening of a Cyanimide Library Identifies Selective Inhibitors of ISG15‐Specific Protease mUSP18” (Angewandte Chemie (International Ed. in English), 2025).
Read-outs that look alike come from different tables or passages of the source.

Molecular target: T1, mUSP18 (Mus musculus, UniProt Q9WTV6)
T1 construct: (46-368); His-tag (N); made in house
T1 sequence (Q9WTV6 46-368): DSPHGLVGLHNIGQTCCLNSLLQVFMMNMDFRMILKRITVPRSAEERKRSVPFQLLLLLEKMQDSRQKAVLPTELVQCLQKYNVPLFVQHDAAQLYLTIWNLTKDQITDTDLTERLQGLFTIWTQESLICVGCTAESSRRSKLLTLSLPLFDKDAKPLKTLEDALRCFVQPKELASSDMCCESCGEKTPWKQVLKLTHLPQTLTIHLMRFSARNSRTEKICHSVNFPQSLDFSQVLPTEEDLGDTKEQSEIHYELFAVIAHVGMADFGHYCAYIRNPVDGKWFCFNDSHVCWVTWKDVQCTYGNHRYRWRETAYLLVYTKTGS
Experiment: High-throughput screening, ISG15ct-RhoMP, single dose 1.25 µM
Format: biochemical, murine
Conditions: for inhibition at 1.25 µM / %inh CA only / %inh CA + DIC/HOBT: mUSP18 %inhibition

[1] = carboxylic acid (CA) building block alone, read-out: %inh CA only
[2] = carboxylic acid (CA) with coupling reagents DIC/HOBT, read-out: %inh CA + DIC/HOBT
[3] = carboxylic acid (CA) building block alone
[4] = carboxylic acid (CA) with coupling reagents DIC/HOBT

| Structure (SMILES) | inhibition at 1.25 µM [1] [%] | inhibition at 1.25 µM [2] [%] | %inh CA only [3] [%] | %inh CA + DIC/HOBT [4] [%] | inhibition of mUSP18 by individual CA's and coupling reagents (screened with and without DIC/HOBt) |
| --- | --- | --- | --- | --- | --- |
| CCCN(CCC)S(=O)(=O)c1ccc(C(=O)O)cc1 [CA041] | -0.96 | -9.25 |  |  |  |
| CN1C(=O)C[C@@H](C(=O)O)[C@@H]1c1cccnc1 [CA042] |  |  | 0.50 | -12.12 |  |
| O=C(O)CCc1ccccc1Br [CA043] | -0.54 | -8.19 |  |  |  |
| CC(=O)CCCC(=O)O [CA044] | -3.03 | -7.52 |  |  |  |
| O=Cc1ccccc1C(=O)O [CA045] | -3.41 | -8.39 |  |  |  |
| O=Cc1cccc(C(=O)O)c1 [CA046] | 0.78 | -7.39 |  |  |  |
| O=C(O)CN1C(=O)c2ccccc2C1=O [CA049] | 0.06 | -15.8 |  |  |  |
| COc1cc(CC(=O)O)ccc1O [CA050] | -1.29 | -15.5 |  |  |  |
| O=C(O)CCc1ccc(O)cc1 [CA051] | -3.68 | -16.6 |  |  |  |
| CNc1ccc(C(=O)O)cc1 [CA052] | -7.36 | -19.1 |  |  |  |
| Cc1ccc(Br)c(C(=O)O)c1 [CA053] |  |  | -8.05 | -15.25 |  |
| O=C(O)c1cc([N+](=O)[O-])ccc1Br [CA054] | -7.96 | -15.9 |  |  |  |
| O=C(O)c1c(F)c(F)c(O)c(F)c1F [CA055] | -5.28 | -14.4 |  |  |  |
| CC(=O)CCC(=O)O [CA056] | -7.82 | -15.2 |  |  |  |
| O=C(O)c1cccc(B(O)O)c1 [CA057] | -5.9 | -16.2 |  |  |  |
| O=C(O)CCc1cccnc1 [CA058] | -2.47 | -16.4 |  |  |  |
| O=C(O)c1ccc(F)c(F)c1 [CA059] | -4.22 | -18.1 |  |  |  |
| CC(C)(C)OC(=O)NC1(C(=O)O)CC1 [CA060] | -6.62 | -13.2 |  |  |  |
| O=C(NCc1ccc(C(=O)O)cc1)OCC1c2ccccc2-c2ccccc21 [CA061] | 13.4 | -3.66 |  |  |  |
| CN(C)c1ccc(C(=O)O)cc1 [CA062] | -0.0145 | 33.7 |  |  |  |
| CC(C)(C)OC(=O)N1C[C@@H](O)C[C@@H]1C(=O)O [CA063] | -5.22 | -16.4 |  |  |  |
| O=C(O)c1ccc(N2CCCC2)cc1F [CA064] | -1.15 | -11.3 |  |  |  |

| Structure (SMILES) | inhibition at 1.25 µM [1] [%] | inhibition at 1.25 µM [2] [%] | %inh CA only [3] [%] | %inh CA + DIC/HOBT [4] [%] | inhibition of mUSP18 by individual CA's and coupling reagents (screened with and without DIC/HOBt) |
| --- | --- | --- | --- | --- | --- |
| CC(C)(C)OC(=O)N1CC[C@H](C(=O)O)C1 [CA067] | -11.3 | -14.4 |  |  |  |
| O=C(O)c1ccc2cc3ccccc3cc2c1 [CA068] | 6.72 | 2.22 |  |  |  |
| O=C(O)c1cccc2cc3ccccc3cc12 [CA069] | -0.58 | -8.94 |  |  |  |
| N#CCC(=O)O [CA070] | -5.36 | -14.2 |  |  |  |
| CC(=O)Oc1ccccc1C(=O)O [CA071] | -4.57 | -15.7 |  |  |  |
| O=C(O)CCc1ccccc1 [CA072] | -7.29 | -13.3 |  |  |  |
| O=C(O)C(Cl)(Cl)Cl [CA073] | 4.86 | -12.6 |  |  |  |
| O=C(O)CN1CCOCC1 [CA074] | -1.88 | -17.1 |  |  |  |
| O=C1CC(C(=O)O)NC(=O)N1 (centres unmarked) [CA075] | -4.58 | -15.1 |  |  |  |
| CN1CCN(CC(=O)O)CC1 [CA076] | -7.27 | -15.7 |  |  |  |
| O=C(O)C1CC1 [CA077] | -6.84 | -14.4 |  |  |  |
| O=C(O)CC1C(=O)Nc2ccccc21 (centres unmarked) [CA078] | -7.04 | -14.2 |  |  |  |
| CC(=O)C(=O)O [CA079] | -7.45 | -14.4 |  |  |  |
| COCC(=O)O [CA080] | -8.74 | -15.7 |  |  |  |
| O=C(O)c1cnccn1 [CA081] |  |  | -6.50 | -13.28 |  |
| Cc1ncc(C(=O)O)s1 [CA082] | -10.3 | -14.8 |  |  |  |
| O=C(O)c1ccc2c(c1)OCO2 [CA083] | -4.98 | -14.2 |  |  |  |
| O=C(O)c1ccc2c(c1)ncn2C1CCCCO1 (centres unmarked) [CA084] | -10.2 | -14.9 |  |  |  |
| CN1CCN(c2ccc(C(=O)O)cc2)CC1 [CA085] | 5.37 | -9.79 |  |  |  |
| O=C(O)c1ccc(N2CCOCC2)cc1 [CA086] | 2 | 15.8 |  |  |  |
| CN1CCC(C(=O)O)CC1 [CA087] | -3.93 | -14.3 |  |  |  |
| CC(=O)N1CCC(C(=O)O)CC1 [CA088] | -2.57 | -12.6 |  |  |  |

| Structure (SMILES) | inhibition at 1.25 µM [1] [%] | inhibition at 1.25 µM [2] [%] | %inh CA only [3] [%] | %inh CA + DIC/HOBT [4] [%] | inhibition of mUSP18 by individual CA's and coupling reagents (screened with and without DIC/HOBt) |
| --- | --- | --- | --- | --- | --- |
| O=C(O)C1CCN(c2ncccn2)CC1 [CA089] | -4.93 | -12.3 |  |  |  |
| O=C(O)c1nc(N2CCCC2)ncc1Cl [CA090] | 23.1 | 14.2 |  |  |  |
| O=C(O)C(Cc1c[nH]cn1)NS(=O)(=O)c1ccc(Cl)cc1 (centres unmarked) [CA091] | 20.4 | 8.3 |  |  |  |
| O=C(O)Cc1csc(-c2cnccn2)n1 [CA092] | 15.3 | 13.1 |  |  |  |
| O=C(O)CCN(Cc1ccccc1)S(=O)(=O)c1c(Cl)cccc1Cl [CA093] | 18.6 | 13.9 |  |  |  |
| O=C(O)c1ncoc1-c1cccs1 [CA094] | 14.4 | 10.3 |  |  |  |
| O=C(O)c1cccc(S(=O)(=O)NCc2cccs2)c1 [CA095] | 14.6 | 10.3 |  |  |  |
| Cc1ccc(-n2c(C)ccc2C)c(C(=O)O)c1 [CA96] | 74.4 | 60 |  |  | could inhibit mUSP18 |
| O=C(O)Cc1csc(COc2ccc(Cl)cc2)n1 [CA097] | 15.8 | 12.5 |  |  |  |
| O=C(O)Cc1cc(-c2ccccc2)on1 [CA098] | 21.6 | 14.7 |  |  |  |
| O=C(O)Cc1ccc(S(=O)(=O)N2CCCC2)s1 [CA099] | 21.7 | 15.6 |  |  |  |
| CN(C(=O)c1cccs1)c1ccccc1C(=O)O [CA100] | 16.4 | 10.5 |  |  |  |
| CN1CCN(c2ccccc2C(=O)O)CC1 [CA101] | 13.5 | 12.2 |  |  |  |
| Cn1cc(-c2ocnc2C(=O)O)cn1 [CA102] | 12.6 | 14.3 |  |  |  |
| NS(=O)(=O)c1ccc(-c2cccc(C(F)(F)F)c2)c(C(=O)O)c1 [CA103] | 11.4 | 12.3 |  |  |  |
| O=C(O)c1cnoc1-c1cccs1 [CA104] | 12.4 | 34 |  |  |  |
| O=C(O)c1ccc(OCc2ccncc2)cc1 [CA105] | 12.9 | 11.9 |  |  |  |
| O=C(O)c1cc(-n2ccnc2)ccn1 [CA106] | 13.6 | 10.8 |  |  |  |
| O=C(O)C1CCN(Cc2ccc(Cl)s2)CC1 [CA107] | 13 | 10.7 |  |  |  |
| O=C(O)C1CC(=O)N(c2cnccn2)C1 (centres unmarked) [CA108] | 13.8 | 11.5 |  |  |  |
| CCC(C(=O)O)n1nnc(-c2ccsc2)n1 (centres unmarked) [CA109] | 10.4 | 12.2 |  |  |  |
